According to patent publication US20260297081A1, “COMPOUNDS AND METHODS OF TREATING CANCERS” (Cullgen Inc., priority 2023, published 2026):

Biological target: CDK4 (Homo sapiens, UniProt P11802+Q16531)
Experiment: CDK4 percentage degradation in Calu-1 cells (Table 6)
Assay type: cell-based
Set-up: Cells that express cyclin D1-3 and CDK4/6 proteins were treated with heterobifunctional compounds; endogenous in cells; host or cells: Calu-1
Details: 16 hours; for inhibition at 0.04 µM: 40 nM; for inhibition at 0.2 µM: 200 nM
Procedure, shortened: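 Calu-1 cells exposed to heterobifunctional compounds at 40 nM or 200 nM for 16 h. Cyclin D1 and CDK4 levels measured by Western blot of RIPA lysates (BCA-normalised loading), bands quantified by densitometry and expressed as percentage degradation.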

Chain of CDK4 (P11802 2-303 limits assumed): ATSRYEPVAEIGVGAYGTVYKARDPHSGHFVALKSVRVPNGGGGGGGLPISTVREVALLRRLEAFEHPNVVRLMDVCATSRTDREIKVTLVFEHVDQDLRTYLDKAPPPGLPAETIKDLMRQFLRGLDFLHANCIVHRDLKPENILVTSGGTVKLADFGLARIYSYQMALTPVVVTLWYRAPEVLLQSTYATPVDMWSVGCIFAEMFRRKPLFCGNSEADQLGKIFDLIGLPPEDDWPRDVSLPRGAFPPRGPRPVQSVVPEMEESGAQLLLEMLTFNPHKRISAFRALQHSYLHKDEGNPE
Chain of CDK4 (P24385 whole entry partner): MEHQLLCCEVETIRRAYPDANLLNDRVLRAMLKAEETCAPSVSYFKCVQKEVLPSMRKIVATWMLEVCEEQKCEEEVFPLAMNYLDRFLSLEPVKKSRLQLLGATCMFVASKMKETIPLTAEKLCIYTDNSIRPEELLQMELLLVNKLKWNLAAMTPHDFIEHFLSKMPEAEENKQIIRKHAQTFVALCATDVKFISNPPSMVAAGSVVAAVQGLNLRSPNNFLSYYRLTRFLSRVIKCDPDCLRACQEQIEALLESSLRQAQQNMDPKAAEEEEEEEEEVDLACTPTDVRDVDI
Chain of CDK4 (Q16531 2-1140 limits assumed): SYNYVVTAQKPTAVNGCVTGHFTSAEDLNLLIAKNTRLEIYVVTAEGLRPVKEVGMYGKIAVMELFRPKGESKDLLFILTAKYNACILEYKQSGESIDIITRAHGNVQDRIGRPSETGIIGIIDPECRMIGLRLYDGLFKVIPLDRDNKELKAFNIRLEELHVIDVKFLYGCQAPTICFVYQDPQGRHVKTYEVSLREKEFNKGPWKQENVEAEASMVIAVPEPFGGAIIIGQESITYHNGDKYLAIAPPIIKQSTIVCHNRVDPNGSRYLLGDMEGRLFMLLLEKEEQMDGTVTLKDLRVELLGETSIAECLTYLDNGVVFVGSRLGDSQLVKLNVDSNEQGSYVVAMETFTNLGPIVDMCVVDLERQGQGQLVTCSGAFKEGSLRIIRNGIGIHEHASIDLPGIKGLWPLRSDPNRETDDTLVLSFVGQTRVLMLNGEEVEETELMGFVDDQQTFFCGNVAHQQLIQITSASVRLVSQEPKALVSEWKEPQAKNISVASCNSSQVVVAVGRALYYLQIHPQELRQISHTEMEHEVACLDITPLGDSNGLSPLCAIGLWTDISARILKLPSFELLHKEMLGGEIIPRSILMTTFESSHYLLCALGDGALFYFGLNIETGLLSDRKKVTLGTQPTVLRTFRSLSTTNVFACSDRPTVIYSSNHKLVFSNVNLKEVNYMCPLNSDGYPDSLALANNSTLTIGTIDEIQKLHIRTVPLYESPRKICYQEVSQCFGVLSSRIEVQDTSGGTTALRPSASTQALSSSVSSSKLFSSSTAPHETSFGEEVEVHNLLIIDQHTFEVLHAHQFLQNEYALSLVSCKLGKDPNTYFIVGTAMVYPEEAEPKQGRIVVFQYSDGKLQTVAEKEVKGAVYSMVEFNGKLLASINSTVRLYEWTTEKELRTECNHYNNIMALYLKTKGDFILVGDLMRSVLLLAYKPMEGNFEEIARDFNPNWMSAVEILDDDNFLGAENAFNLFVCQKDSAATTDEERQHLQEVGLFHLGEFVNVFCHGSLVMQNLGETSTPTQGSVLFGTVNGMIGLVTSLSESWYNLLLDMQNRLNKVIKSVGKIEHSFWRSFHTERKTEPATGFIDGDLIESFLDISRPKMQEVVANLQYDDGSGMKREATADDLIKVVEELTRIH

inhibition at 0.04 µM	inhibition at 0.2 µM	Compound
30 to 50%	50 to 80%	CNc1ccc(C(=O)Nc2cc(C3CC3)n(C)n2)c(NC2CC3(CC(NC(=O)CN4CCN(c5ccc(Nc6ncc7c(C)c(C(C)=O)c(=O)n(C8CCCC8)c7n6)nc5)CC4)C3)C2)n1 (stereo not drawn) [CPD-98, 2-((6-(2-(4-(6-((6-Acetyl-8-cyclopentyl-5-methyl-7-oxo-7,8-dihydropyrido[2,3-d]pyrimidin-2-yl)amino)pyridin-3-yl)piperazin-1-yl)acetamido)spiro[3.3]heptan-2-yl)amino)-N-(5-cyclopropyl-1-methyl-1H-pyrazol-3-yl)-6-(methylamino)nicotinamide]
30 to 50%	50 to 80%	CNc1ccc(C(=O)Nc2ccc(N(C)C)nn2)c(NCCCCC(=O)NCCN2CCN(c3ccc(Nc4ncc5c(C)c(C(C)=O)c(=O)n(C6CCCC6)c5n4)nc3)CC2)n1 [CPD-36, 2-((5-((2-(4-(6-((6-Acetyl-8-cyclopentyl-5-methyl-7-oxo-7,8-dihydropyrido[2,3-d]pyrimidin-2-yl)amino)pyridin-3-yl)piperazin-1-yl)ethyl)amino)-5-oxopentyl)amino)-N-(6-(dimethylamino)pyridazin-3-yl)-6-(methylamino)nicotinamide]
30 to 50%	30 to 50%	CNc1ccc(C(=O)Nc2ccc(OC)c(C3CC3)n2)c(NC2CC3(CC(NC(=O)CN4CCN(c5ccc(Nc6ncc7c(C)c(C(C)=O)c(=O)n(C8CCCC8)c7n6)nc5)CC4)C3)C2)n1 (stereo not drawn) [CPD-125, 2-((6-(2-(4-(6-((6-Acetyl-8-cyclopentyl-5-methyl-7-oxo-7,8-dihydropyrido[2,3-d]pyrimidin-2-yl)amino)pyridin-3-yl)piperazin-1-yl)acetamido)spiro[3.3]heptan-2-yl)amino)-N-(6-cyclopropyl-5-methoxypyridin-2-yl)-6-(methylamino)nicotinamide]
30 to 50%	50 to 80%	CC(=O)c1c(C)c2cnc(Nc3ccc(N4CCN(CC(=O)NCC5CC(Nc6nc(C(C)C)ccc6C(=O)Nc6cc(C)n(C)n6)C5)CC4)cn3)nc2n(C2CCCC2)c1=O (stereo not drawn) [CPD-212, 2-((3-((2-(4-(6-((6-acetyl-8-cyclopentyl-5-methyl-7-oxo-7,8-dihydropyrido[2,3-d]pyrimidin-2-yl)amino)pyridin-3-yl)piperazin-1-yl)acetamido)methyl)cyclobutyl)amino)-N-(1,5-dimethyl-1H-pyrazol-3-yl)-6-isopropylnicotinamide]
30 to 50%	50 to 80%	CNc1ccc(C(=O)Nc2ccc(N(C)C)nn2)c(NCCC2CC(NC(=O)CN3CCN(c4ccc(Nc5ncc6c(C)c(C(C)=O)c(=O)n(C7CCCC7)c6n5)nc4)CC3)C2)n1 (stereo not drawn) [CPD-41, 2-((2-(3-(2-(4-(6-((6-Acetyl-8-cyclopentyl-5-methyl-7-oxo-7,8-dihydropyrido[2,3-d]pyrimidin-2-yl)amino)pyridin-3-yl)piperazin-1-yl)acetamido)cyclobutyl)ethyl)amino)-N-(6-(dimethylamino)pyridazin-3-yl)-6-(methylamino)nicotinamide]
30 to 50%	50 to 80%	CNc1ccc(C(=O)Nc2cc(C)on2)c(NC2CCN(C(=O)CN3CCN(c4ccc(Nc5ncc6c(C)c(C(C)=O)c(=O)n(C7CCCC7)c6n5)nc4)CC3)CC2)n1 [CPD-229, 2-((1-(2-(4-(6-((6-acetyl-8-cyclopentyl-5-methyl-7-oxo-7,8-dihydropyrido[2,3-d]pyrimidin-2-yl)amino)pyridin-3-yl)piperazin-1-yl)acetyl)piperidin-4-yl)amino)-6-(methylamino)-N-(5-methylisoxazol-3-yl)nicotinamide]
< 30%	50 to 80%	CNc1ccc(C(=O)Nc2ccc(N(C)C)cn2)c(NCCCCCNC(=O)CN2CCN(c3ccc(Nc4ncc5c(C)c(C(C)=O)c(=O)n(C6CCCC6)c5n4)nc3)CC2)n1 [CPD-47, 2-((5-(2-(4-(6-((6-Acetyl-8-cyclopentyl-5-methyl-7-oxo-7,8-dihydropyrido[2,3-d]pyrimidin-2-yl)amino)pyridin-3-yl)piperazin-1-yl)acetamido)pentyl)amino)-N-(5-(dimethylamino)pyridin-2-yl)-6-(methylamino)nicotinamide]
< 30%	30 to 50%	CNc1ccc(C(=O)Nc2ccc(N3CCCC3)nn2)c(NCCCCCNC(=O)CN2CCN(c3ccc(Nc4ncc5c(C)c(C(C)=O)c(=O)n(C6CCCC6)c5n4)nc3)CC2)n1 [CPD-17, 2-((5-(2-(4-(6-((6-Acetyl-8-cyclopentyl-5-methyl-7-oxo-7,8-dihydropyrido[2,3-d]pyrimidin-2-yl)amino)pyridin-3-yl)piperazin-1-yl)acetamido)pentyl)amino)-6-(methylamino)-N-(6-(pyrrolidin-1-yl)pyridazin-3-yl)nicotinamide]
< 30%	30 to 50%	CC(=O)c1c(C)c2cnc(Nc3ccc(N4CCN(CC(=O)NC5CC6(C5)CC(Nc5cc(Cl)ccc5C(=O)Nc5cc(C)on5)C6)CC4)cn3)nc2n(C2CCCC2)c1=O (stereo not drawn) [CPD-259, 2-((6-(2-(4-(6-((6-acetyl-8-cyclopentyl-5-methyl-7-oxo-7,8-dihydropyrido[2,3-d]pyrimidin-2-yl)amino)pyridin-3-yl)piperazin-1-yl)acetamido)spiro[3.3]heptan-2-yl)amino)-4-chloro-N-(5-methylisoxazol-3-yl)benzamide]
30 to 50%	30 to 50%	CNc1ccc(C(=O)Nc2ccccn2)c(NC2CC3(CC(NC(=O)CN4CCN(c5ccc(Nc6ncc7c(C)c(C(C)=O)c(=O)n(C8CCCC8)c7n6)nc5)CC4)C3)C2)n1 (stereo not drawn) [CPD-137, 2-((6-(2-(4-(6-((6-Acetyl-8-cyclopentyl-5-methyl-7-oxo-7,8-dihydropyrido[2,3-d]pyrimidin-2-yl)amino)pyridin-3-yl)piperazin-1-yl)acetamido)spiro[3.3]heptan-2-yl)amino)-6-(methylamino)-N-(pyridin-2-yl)nicotinamide]
< 30%	< 30%	CNc1ccc(C(=O)Nc2ccc(N(C)C)cc2)c(NCCCCCNC(=O)CN2CCN(c3ccc(Nc4ncc5c(C)c(C(C)=O)c(=O)n(C6CCCC6)c5n4)nc3)CC2)n1 [CPD-46, 2-((5-(2-(4-(6-((6-Acetyl-8-cyclopentyl-5-methyl-7-oxo-7,8-dihydropyrido[2,3-d]pyrimidin-2-yl)amino)pyridin-3-yl)piperazin-1-yl)acetamido)pentyl)amino)-N-(4-(dimethylamino)phenyl)-6-(methylamino)nicotinamide]
< 30%	–	CC(=O)c1c(C)c2cnc(Nc3ccc(N4CCN(CC(=O)NCCCCCCCNc5nc(-c6ccc(C#N)nc6)ccc5C(=O)Nc5nc(C)c(C)s5)CC4)cn3)nc2n(C2CCCC2)c1=O [CPD-142]
< 30%	< 30%	[2H]C([2H])([2H])Nc1ccc(C(=O)Nc2ccc(N(C)C)nn2)c(NC2CN(C(=O)C(F)(F)CN3CCN(c4ccc(Nc5ncc6c(C)c(C(C)=O)c(=O)n(C7CCCC7)c6n5)nc4)CC3)C2)n1 [CPD-248, 2-((1-(3-(4-(6-((6-acetyl-8-cyclopentyl-5-methyl-7-oxo-7,8-dihydropyrido[2,3-d]pyrimidin-2-yl)amino)pyridin-3-yl)piperazin-1-yl)-2,2-difluoropropanoyl)azetidin-3-yl)amino)-N-(6-(dimethylamino)pyridazin-3-yl)-6-((methyl-d3)amino)nicotinamide]
< 30%	50 to 80%	CNc1ccc(C(=O)Nc2ccc(N(C)C)nn2)c(NC2CCC3(C2)CN(C(=O)CN2CCN(c4ccc(Nc5ncc6c(C)c(C(C)=O)c(=O)n(C7CCCC7)c6n5)nc4)CC2)C3)n1 (stereo not drawn) [CPD-235, 2-((2-(2-(4-(6-((6-acetyl-8-cyclopentyl-5-methyl-7-oxo-7,8-dihydropyrido[2,3-d]pyrimidin-2-yl)amino)pyridin-3-yl)piperazin-1-yl)acetyl)-2-azaspiro[3.4]octan-6-yl)amino)-N-(6-(dimethylamino)pyridazin-3-yl)-6-(methylamino)nicotinamide]
50 to 80%	50 to 80%	[2H]C([2H])([2H])Nc1ccc(C(=O)Nc2ccc(N(C)C)nn2)c(NC2CC3(C2)CN(C(=O)C(F)(F)CN2CCN(c4ccc(Nc5ncc6c(C)c(C(C)=O)c(=O)n(C7CCCC7)c6n5)nc4)CC2)C3)n1 [CPD-249, 2-((2-(3-(4-(6-((6-acetyl-8-cyclopentyl-5-methyl-7-oxo-7,8-dihydropyrido[2,3-d]pyrimidin-2-yl)amino)pyridin-3-yl)piperazin-1-yl)-2,2-difluoropropanoyl)-2-azaspiro[3.3]heptan-6-yl)amino)-N-(6-(dimethylamino)pyridazin-3-yl)-6-((methyl-d3)amino)nicotinamide]
< 30%	< 30%	CNc1ccc(C(=O)Nc2cccc(C3CC3)n2)c(NC[C@H]2CC[C@H](NC(=O)CN3CCN(c4ccc(Nc5ncc6c(C)c(C(C)=O)c(=O)n(C7CCCC7)c6n5)nc4)CC3)CC2)n1 [CPD-154, 2-(((trans-4-(2-(4-(6-((6-acetyl-8-cyclopentyl-5-methyl-7-oxo-7,8-dihydropyrido[2,3-d]pyrimidin-2-yl)amino)pyridin-3-yl)piperazin-1-yl)acetamido)cyclohexyl)methyl)amino)-N-(6-cyclopropylpyridin-2-yl)-6-(methylamino)nicotinamide]
50 to 80%	50 to 80%	CNc1ccc(C(=O)Nc2ccc(N(C)C)nn2)c(NCCC2CCN(C(=O)CN3CCN(c4ccc(Nc5ncc6c(C)c(C(C)=O)c(=O)n(C7CCCC7)c6n5)nc4)CC3)CC2)n1 [CPD-89, 2-((2-(1-(2-(4-(6-((6-Acetyl-8-cyclopentyl-5-methyl-7-oxo-7,8-dihydropyrido[2,3-d]pyrimidin-2-yl)amino)pyridin-3-yl)piperazin-1-yl)acetyl)piperidin-4-yl)ethyl)amino)-N-(6-(dimethylamino)pyridazin-3-yl)-6-(methylamino)nicotinamide]
